Measurements taken from US20210355104A1, “ADENOSINE RECEPTOR BINDING COMPOUNDS” (Nikang Therapeuticsm Inc., priority 2018, published 2021).
“And” between values parts separate entries of the source, which are not always exact repeats. Equal entries are not always repeated. Where two headings read alike, the source gives them in different places.

Tests used:
Adenosine A2A receptor = Adenosine A2A receptor (Homo sapiens, UniProt P29274); assay: cAMP assay in 293A cells stably expressing the adenosine A2A receptor (CGS21680 stimulation, HTRF); assay type: cell-based; parameters: expressed in transfected cells; host or cells: 293A cells (Invitrogen, Cat# R705-07) infected with A2A-expressing lentivirus (custom packaged by Biosettia), puromycin selected; settings: 0.1% BSA, read-out: cAMP (nM) 0.1% BSA, 1 uM CGS
Chain of Adenosine A2A receptor (P29274 whole entry): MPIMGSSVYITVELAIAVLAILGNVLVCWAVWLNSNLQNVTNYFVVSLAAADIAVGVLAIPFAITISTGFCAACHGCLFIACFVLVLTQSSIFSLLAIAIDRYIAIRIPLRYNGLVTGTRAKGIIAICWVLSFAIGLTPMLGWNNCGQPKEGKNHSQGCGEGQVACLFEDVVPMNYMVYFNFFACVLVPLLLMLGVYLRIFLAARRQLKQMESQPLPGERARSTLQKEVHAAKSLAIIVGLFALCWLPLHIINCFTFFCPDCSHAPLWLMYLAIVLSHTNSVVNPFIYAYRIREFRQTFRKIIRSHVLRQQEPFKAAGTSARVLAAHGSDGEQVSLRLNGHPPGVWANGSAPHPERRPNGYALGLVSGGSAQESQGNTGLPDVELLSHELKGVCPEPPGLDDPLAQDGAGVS

[1] = test system: p-CREB (phosphorylated cAMP response-element binding protein) in human whole blood; assay: p-CREB assay in human whole blood by flow cytometry (NECA stimulation, CD4 staining); assay type: cell-based
Procedure: Assay protocol for p-CREB (phosphorylated cAMP response-element binding protein) in human whole blood by flow cytometry
Fresh human whole blood (Biological Specialty Corporation) was added at 100 ul per wellinto a 96-well plate and treated with test compounds (Serial dilutions of 1:3 with starting concentration at 30 uM, 11 concentrations total, in the presence of adenosine deaminase) for one hour at room temperature on a plate shaker. Then 10 ul of 10× NECA (50 uM stock in PBS) and 10 ul of 10 × Rolipram (50 uM stock in PBS) were added, with designated wells for unstimulated (Rolipram+DMSO) and stimulated (Rolipram+NECA+DMSO) conditions. The plates were mixed well and incubated at room temperature for 30 min on a plate shaker. 1× lyse/Fix buffer (5× stock, BD #558049) was warmed to 37° in a water bath. 1200 ul of pre-warmed 1× lyse/Fix buffer was then added to the plate, which was then sealed and mixed by inverting the plate a few times. The plate was then incubated for 30 min at 37° in a water bath. After incubation, the plate was centrifuged at 1600 rpm for 5 min and the supernatant was decanted, then 1200 ul PBS was added and the plate was mixed by inverting a few times followed by centrifuging at 1600 rpm for 5 min and again decanting the supernatant. Then, 200 ul FIX PERM buffer II (BD #558052) was added and the plate was mixed well, then kept on ice for 45 min After spinning the plate at 1600 rpm for 5 min the supernatant was again decanted. Then was added 200 ul staining buffer (BD #554657), and the plate was mixed well and spun at 1600 rpm for 5 min, then the supernatant was again decanted. 200 ul staining buffer was added, the plate was mixed well and the plate was sealed at this step for storage at 4° overnight or until staining. Before staining, the plate was spun at 1600 rpm for 5 min and the supernatant was again decanted. Antibody mix in staining buffer was prepared (75 ul/well, 1:50 dilution for p-CREB antibody from Cell Signaling Tech #14001S, 1:200 dilution for CD4 antibody from BD #566320) and the cells were resuspended in the above antibody mix solution. After mixing well, the plate was incubated (shielded from light) at room temperature for two hours on a plate shaker. It was then spun at 1600 rpm for 5 min and the supernatant was decanted. 200 ul staining buffer was then added to wash cells, and the plate was then mixed by shaking or pipetting. The wash step was repeated at least one more time, and after the final wash, cells were resusptended in 200 ul staining buffer in U bottom plate for flow cytometry analysis.

[2] = 293A cells stably expressing A2A receptor, 1 uM CGS21680 stimulation, replicate values separated by /
[3] = Homo sapiens, replicate values separated by /
[4] = replicate values separated by /

| Compound | IC50 (Adenosine A2A receptor; 293A-A2AR cells, 1 uM CGS) | IC50 [1] | IC50 ([1]; Homo sapiens) | IC50 (Adenosine A2A receptor; [2]) | IC50 [1, 3] | IC50 [1, 4] |
| --- | --- | --- | --- | --- | --- | --- |
| CNc1cccc(COc2nc(N)nc(-c3ccc(F)cc3)c2-c2cc(C)nc(C(F)F)c2)n1 [Example 379, 5-(2-(difluoromethyl)-6-methylpyridin-4-yl)-4-(4-fluorophenyl)-6-((6-(methylamino)pyridin-2-yl)methoxy)pyrimidin-2-amine] | 230 nM and 119 nM and 72 nM | 10.7 nM | 13.1 nM | – | – | – |
| Cc1cc(-c2c(OCc3cccc(-c4nn[nH]n4)n3)nc(N)nc2-c2ccc(F)cc2)cc(C(F)F)n1 [Example 399, 4-((6-(2H-tetrazol-5-yl)pyridin-2-yl)methoxy)-5-(2-(difluoromethyl)-6-methylpyridin-4-yl)-6-(4-fluorophenyl)pyrimidin-2-amine] | – | – | – | 273 nM and 362 nM and 482 nM and 440 nM | 201 nM | – |
| Cc1cc(-c2c(OCc3cccc(C(C)(C)C(=O)O)n3)nc(N)nc2-c2ccc(F)cc2)cc(C(F)(F)F)n1 [Example 385, 2-(6-(((2-amino-6-(4-fluorophenyl)-5-(2-methyl-6-(trifluoromethyl)pyridin-4-yl)pyrimidin-4-yl)oxy)methyl)pyridin-2-yl)-2-methylpropanoic acid] | 2330 nM and 1020 nM | – | 1460 nM | – | – | – |
| Cc1cc(-c2c(OCc3cccc(C(C)(C)C(=O)O)n3)nc(N)nc2-c2ccc(F)cc2)cc(C(F)F)n1 [Example 263, 2-(6-(((2-amino-5-(2-(difluoromethyl)-6-methylpyridin-4-yl)-6-(4-fluorophenyl)pyrimidin-4-yl)oxy)methyl)pyridin-2-yl)-2-methylpropanoic acid] | 33 nM and 168 nM and 95 nM and 126 nM | 114 nM | 82 nM | – | – | – |
| Cc1cc(-c2c(OCCN(C)c3cccc(C(C)(C)C(=O)O)n3)nc(N)nc2-c2ccc(F)cc2)cc(C(F)F)n1 [Example 339, 2-(6-((2-((2-amino-5-(2-(difluoromethyl)-6-methylpyridin-4-yl)-6-(4-fluorophenyl)pyrimidin-4-yl)oxy)ethyl)(methyl)amino)pyridin-2-yl)-2-methylpropanoic acid] | 561 nM and 795 nM and 230 nM | – | 166 nM | – | – | – |
| COC(=O)NCc1cccc(COc2nc(N)nc(-c3ccc(F)cc3)c2-c2cc(C)nc(C(F)F)c2)n1 [Example 410, methyl((6-(((2-amino-5-(2-(difluoromethyl)-6-methylpyridin-4-yl)-6-(4-fluorophenyl)pyrimidin-4-yl)oxy)methyl)pyridin-2-yl)methyl)carbamate] | – | – | – | 97 nM and 142 nM and 124 nM and 178 nM | 20 nM | – |
| CCn1nccc1COc1nc(N)nc(-c2ccc(F)cc2)c1-c1cc(C)nc(C(F)F)c1 [Example 227, 5-(2-(difluoromethyl)-6-methylpyridin-4-yl)-4-((1-ethyl-1H-pyrazol-5-yl)methoxy)-6-(4-fluorophenyl)pyrimidin-2-amine] | 29 nM and 97 nM and 71 nM | – | 17.8 nM | – | – | – |
| CNCc1cccc(COc2nc(N)nc(-c3ccc(F)cc3)c2-c2cc(C)nc(C(F)F)c2)n1 [Example 403, 5-(2-(difluoromethyl)-6-methylpyridin-4-yl)-4-(4-fluorophenyl)-6-((6-((methylamino)methyl)pyridin-2-yl)methoxy)pyrimidin-2-amine] | – | – | – | 249 nM and 322 nM and 311 nM | 108 nM | – |
| Cc1cc(-c2c(OCc3ccnc(N)n3)nc(N)nc2-c2ccc(F)cc2)cc(C(F)F)n1 [Example 413, 4-((2-aminopyrimidin-4-yl)methoxy)-5-(2-(difluoromethyl)-6-methylpyridin-4-yl)-6-(4-fluorophenyl)pyrimidin-2-amine] | – | – | – | 4.5 nM and 19 nM and 14 nM | 50.2 nM | 40.8 nM |
| CNC(=O)OCc1cccc(COc2nc(N)nc(-c3ccc(F)cc3)c2-c2cc(C)nc(C(F)F)c2)n1 [Example 425, (6-(((2-amino-5-(2-(difluoromethyl)-6-methylpyridin-4-yl)-6-(4-fluorophenyl)pyrimidin-4-yl)oxy)methyl)pyridin-2-yl)methyl methylcarbamate] | – | – | – | 35 nM and 74 nM and 23 nM | 33.3 nM | 29 nM |
| Cc1cc(-c2c(OCc3cccc(CNCC(=O)N(C)C)n3)nc(N)nc2-c2ccc(F)cc2)cc(C(F)F)n1 [Example 437, 2-(((6-(((2-amino-5-(2-(difluoromethyl)-6-methylpyridin-4-yl)-6-(4-fluorophenyl)pyrimidin-4-yl)oxy)methyl)pyridin-2-yl)methyl)amino)-N,N-dimethylacetamide] | – | – | – | 282 nM | 232 nM | – |
| Cc1cc(-c2c(OCc3cccc(OCCO)n3)nc(N)nc2-c2ccc(F)cc2)cc(C(F)F)n1 [Example 305] | 196 nM | – | 61.7 nM | – | – | – |
| Cc1cc(-c2c(OCc3cccc(C(C)(C)C#N)n3)nc(N)nc2-c2ccc(F)cc2)cc(C(F)F)n1 [Example 230, 2-(6-(((2-amino-5-(2-(difluoromethyl)-6-methylpyridin-4-yl)-6-(4-fluorophenyl)pyrimidin-4-yl)oxy)methyl)pyridin-2-yl)-2-methylpropanenitrile] | 7 nM and 40 nM and 64 nM | 37.6 nM | 32.4 nM | – | – | – |
| Cc1cc(-c2c(OCc3nnn(C)n3)nc(N)nc2-c2ccc(F)cc2)cc(C(F)F)n1 [Example 241, 5-(2-(difluoromethyl)-6-methylpyridin-4-yl)-4-(4-fluorophenyl)-6-((2-methyl-2H-tetrazol-5-yl)methoxy)pyrimidin-2-amine] | 213 nM | – | 221 nM | – | – | – |
| Cc1cc(-c2c(OCc3cccc(C4(CCO)CCOC4=O)n3)nc(N)nc2-c2ccc(F)cc2)cc(C(F)F)n1 (stereo not shown) [Example 439, 3-(6-(((2-amino-5-(2-(difluoromethyl)-6-methylpyridin-4-yl)-6-(4-fluorophenyl)pyrimidin-4-yl)oxy)methyl)pyridin-2-yl)-3-(2-hydroxyethyl)dihydrofuran-2(3H)-one] | – | – | – | 103 nM | 252 nM | – |
| Cc1cc(-c2c(OCc3ncccc3C(C)(C)O)nc(N)nc2-c2ccc(F)cc2)cc(C(F)F)n1 [Example 238] | 313 nM | – | 36.3 nM | – | – | – |
| Cc1cc(-c2c(OCCN3CCCc4cccnc43)nc(N)nc2-c2ccc(F)cc2)cc(C(F)F)n1 [Example 408, 5-(2-(difluoromethyl)-6-methylpyridin-4-yl)-4-(2-(3,4-dihydro-1,8-naphthyridin-1 (2H)-yl)ethoxy)-6-(4-fluorophenyl)pyrimidin-2-amine] | – | – | – | 68 nM and 41 nM and 19 nM and 74 nM | 37.9 nM | – |
| CCn1c(COc2nc(N)nc(-c3ccc(F)cc3)c2-c2cc(C)nc(C(F)F)c2)nc2ccccc21 [Example 315, 5-(2-(difluoromethyl)-6-methylpyridin-4-yl)-4-((1-ethyl-1H-benzo[d]imidazol-2-yl)methoxy)-6-(4-fluorophenyl)pyrimidin-2-amine] | 1.8 nM and 15 nM | – | 24.8 nM | – | – | – |
| CNC(C)(C)c1cccc(COc2nc(N)nc(-c3ccc(F)cc3)c2-c2cc(C)nc(C(F)F)c2)n1 [Example 389, 5-(2-(difluoromethyl)-6-methylpyridin-4-yl)-4-(4-fluorophenyl)-6-((6-(2-(methylamino)propan-2-yl)pyridin-2-yl)methoxy)pyrimidin-2-amine] | 231 nM and 114 nM and 100 nM | – | 60 nM | – | – | – |
| CCn1c(COc2nc(N)nc(-c3ccc(F)cc3)c2-c2cc(C)nc(C(F)F)c2)nc2cccnc21 [Example 329, 5-(2-(difluoromethyl)-6-methylpyridin-4-yl)-4-((3-ethyl-3H-imidazo[4,5-b]pyridin-2-yl)methoxy)-6-(4-fluorophenyl)pyrimidin-2-amine] | 87 nM and 249 nM and 153 nM | – | 128 nM | – | – | – |
| Cc1cc(-c2c(OCc3nccs3)nc(N)nc2-c2ccc(F)cc2)cc(C(F)F)n1 [Example 350, 5-(2-(difluoromethyl)-6-methylpyridin-4-yl)-4-(4-fluorophenyl)-6-(thiazol-2-ylmethoxy)pyrimidin-2-amine] | 26.1 nM and 5.9 nM and 30 nM | – | 4 nM | – | – | – |
| Cc1cc(-c2c(OCc3cccc(NC(CO)CO)n3)nc(N)nc2-c2ccc(F)cc2)cc(C(F)F)n1 [Example 442, 2-((6-(((2-amino-5-(2-(difluoromethyl)-6-methylpyridin-4-yl)-6-(4-fluorophenyl)pyrimidin-4-yl)oxy)methyl)pyridin-2-yl)amino)propane-1,3-diol] | – | – | – | 177 nM | 208 nM | – |
